This is an account of results in patent US9795140B2, “Molecules having pesticidal utility, and intermediates, compositions, and processes, related thereto” (priority 2015, dated 2017).

The structures appear in SMILES notation.

What all share (format): in vivo
Data set [1] relates to Beet Armyworm (Spodoptera exigua, LAPHEG). Nature of the data set: Bioassay on Beet Armyworm (BAW), 128-well diet tray assay. The note with it: 168 h, 50 μg/cm^2 on artificial diet, second instar larvae, 25° C., five to seven days, average of eight wells, read-out: BAW % Control (or Mortality) rating. The method, boiled down:
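Diet in each of eight wells received 50 μg/cm^2 of test molecule (90:10 acetone-water, dried), then one to five second-instar larvae were added. Mortality (%) was scored after five to seven days at 25° C. under 14:10 light-dark and averaged across the wells.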

Data set [2] has as its system Yellow Fever Mosquito (Aedes aegypti, AEDSAE). Nature of the data set: Bioassay on Yellow Fever Mosquito (YFM) larvae, 96-well plate. The note with it: about 1 day-old larvae, room temperature, 3 days, scored on mortality. The method, boiled down: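 Compound stocks at 4000 ppm in DMSO were diluted with 90:10 water/acetone, and 15 μL aliquots were dispensed into six replicate plates. About 1-day-old larvae in liver-powder water were added per well. Plates were covered and held at room temperature for 3 days before each well was scored for mortality.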

Data set [3] relates to Green Peach Aphid (Myzus persicae, MYZUPE). Nature of the data set: Bioassay on Green Peach Aphid (GPA), foliar spray on cabbage seedlings. The note with it: 72 h, 200 ppm spray on infested cabbage seedlings, three days, Abbott corrected % control, read-out: GPA % Control (or Mortality) rating. As for the experimental part:
Certain molecules disclosed in this document were tested against GPA using procedures described in the following example. In the reporting of the results, the “GPA & YFM Rating Table” was used (See Table Section).
Cabbage seedlings grown in 3-inch pots, with 2-3 small (3-5 cm) true leaves, were used as test substrate. The seedlings were infested with 20-50 GPA (wingless adult and nymph stages) one day prior to chemical application. Four pots with individual seedlings were used for each treatment. Test molecules (2 mg) were dissolved in 2 mL of acetone/methanol (1:1) solvent, forming stock solutions of 1000 ppm test molecule. The stock solutions were diluted 5× with 0.025% Tween 20 in water to obtain the solution at 200 ppm test molecule. A hand-held aspirator-type sprayer was used for spraying a solution to both sides of […] leaves until runoff. Reference plants (solvent check) were sprayed with the diluent only containing 20% by volume of acetone/methanol (1:1) solvent. Treated plants were held in a holding room for three days at approximately 25° C. and ambient relative humidity (RH) prior to grading. Evaluation was conducted by counting the number of live aphids per plant under a microscope. Percent control was measured using Abbott's correction formula (W. S. Abbott, “A Method of Computing the Effectiveness of an Insecticide” J. Econ. Entomol. 18 (1925), pp. 265-267) as follows. Corrected % Control=100*(X−Y)/X where X=No. of live aphids on solvent check plants and Y=No. of live aphids on treated plants. The results are indicated in the table entitled “Table ABC: Biological Results” (See Table Section).

The subject of data set [4] is Cabbage Looper (Trichoplusia ni, TRIPNI). Nature of the data set: Bioassay on Cabbage Looper (CL), 128-well diet tray assay. The note with it: 168 h, 50 μg/cm^2 on artificial diet, second instar larvae, 25° C., five to seven days, average of eight wells, read-out: CL % Control (or Mortality) rating. A digest of the protocol:
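Percent larval mortality, averaged across eight replicate wells, was scored after 5–7 days at 25 °C with a 14:10 photoperiod. Each well held 1 mL diet surface-treated at 50 μg/cm^2 with test molecule from a 90:10 acetone-water solution, then dried. Wells were infested with one to five second-instar cabbage loopers.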

For `CNC(=O)c1cc(NC(=O)[C@H]2[C@H](c3cc(Cl)cc(Cl)c3)C2(Cl)Cl)ccc1C(F)(F)F` (relative stereo) [F2, trans-5-(2,2-Dichloro-3-(3,5-dichlorophenyl)cyclopropane-1-carboxamido)-N-methyl-2-(trifluoromethyl)benzamide], the mortality at 50 µg/cm2 in data set [1] and in data set [4] was 50 to 100% in each case. Also, the “YFM % Control (or Mortality) rating” value in data set [2] is “A (80-100)”. Further, in data set [3], the mortality (commonly the share of the test organisms that died) at 200 ppm was 0 to 80%.
Turning to `O=C(NCC(F)(F)F)c1cc(NC(=O)[C@H]2[C@H](c3cc(Cl)cc(Cl)c3)C2(Cl)Cl)ccc1Cl` (relative stereo) [F4, trans-2-Chloro-5-(2,2-dichloro-3-(3,5-dichlorophenyl)cyclopropane-1-carboxamido)-N-(2,2,2-trifluoroethyl)benzamide], the mortality at 50 µg/cm2 in data set [1] and in data set [4] was 50 to 100% throughout. Moreover, the “YFM % Control (or Mortality) rating” value in data set [2] is reported as “A (80-100)”. Also, the mortality at 200 ppm in data set [3] lay within 80 to 100%.
For the compound `O=C(NCc1cccnc1)c1cc(NC(=O)[C@H]2[C@H](c3cc(Cl)cc(Cl)c3)C2(Cl)Cl)ccc1Cl` (relative stereo) [F6, trans-2-Chloro-5-(2,2-dichloro-3-(3,5-dichlorophenyl)cyclopropane-1-carboxamido)-N-(pyridin-3-ylmethyl)benzamide], the mortality at 50 µg/cm2 in data set [1] and in data set [4] was 50 to 100% in each case. Also, the “YFM % Control (or Mortality) rating” value in data set [2] is reported as “A (80-100)”. Further, in data set [3], the mortality at 200 ppm was in the range of 0 to 80%.
For `O=C(NCc1ccncc1)c1cc(NC(=O)[C@H]2[C@H](c3cc(Cl)cc(Cl)c3)C2(Cl)Cl)ccc1Cl` (relative stereo) [F12, trans-2-Chloro-5-(2,2-dichloro-3-(3,5-dichlorophenyl)cyclopropane-1-carboxamido)-N-(pyridin-4-ylmethyl)benzamide], the mortality at 50 µg/cm2 in data set [1] and in data set [4] was 50 to 100% each time. Also, in data set [2], the “YFM % Control (or Mortality) rating” value is listed as “A (80-100)”. Moreover, the mortality at 200 ppm in data set [3] was 0 to 80%.
Consider `O=C(NCc1ccncc1)c1cc(NC(=O)[C@H]2[C@H](c3cc(Cl)c(Cl)c(Cl)c3)C2(Cl)Cl)ccc1Cl` (relative stereo) [F13, trans-2-Chloro-5-(2,2-dichloro-3-(3,4,5-trichlorophenyl)cyclopropane-1-carboxamido)-N-(pyridin-4-ylmethyl)benzamide], for which the mortality at 50 µg/cm2 in data set [1] and in data set [4] was 50 to 100% in each case. For the same compound, in data set [2], the “YFM % Control (or Mortality) rating” value is on record as “A (80-100)”. For the same compound, in data set [3], the mortality at 200 ppm lay within 0 to 80%.
For `O=C(NCCOCC1CC1)c1cc(NC(=O)[C@H]2[C@H](c3cc(Cl)cc(Cl)c3)C2(Cl)Cl)ccc1Cl` (relative stereo) [F43, trans-2-Chloro-N-(2-(cyclopropylmethoxy)ethyl)-5-(2,2-dichloro-3-(3,5-dichlorophenyl)cyclopropane-1-carboxamido)benzamide], the mortality at 50 µg/cm2 in data set [1] and in data set [4] was 50 to 100% each time. Moreover, the mortality at 200 ppm in data set [3] is 80 to 100%.
Take `O=C(NOCc1ccc(F)cc1)c1cc(NC(=O)C2C(c3cc(Cl)c(Cl)c(Cl)c3)C2(Cl)Cl)ccc1Cl` (stereo not drawn) [F18, trans-N-2-Chloro-5-(2,2-dichloro-3-(3,4,5-trichlorophenyl)cyclopropane-1-carboxamido)-N-((4-fluorobenzyl)oxy)benzamide]: the mortality at 50 µg/cm2 in data set [1] and in data set [4] was 50 to 100% each time. Also, the mortality at 200 ppm in data set [3] lay within 0 to 80%.
Regarding `O=C(NCC(F)(F)F)c1cc(NC(=O)C2C(c3cc(F)c(F)c(F)c3)C2(Cl)Cl)ccc1Cl` (stereo not drawn) [F126, 2-Chloro-5-trans-(2,2-dichloro-3-(3,4,5-trifluorophenyl)cyclopropane-1-carboxamido)-N-(2,2,2-trifluoroethyl)benzamide], the mortality at 50 µg/cm2 in data set [1] and in data set [4] was 50 to 100% in each case. The “YFM % Control (or Mortality) rating” value in data set [2] is on record as “A (80-100)”.
